Measurements from BindingDB's records for doi:10.1073/pnas.0509591102 (Mcgill University, 2005).

What was measured:
[1] = target: Muscarinic acetylcholine receptor M3 (Homo sapiens, UniProt P20309)
[2] = target: Neuronal acetylcholine receptor subunit alpha-4 (Homo sapiens, UniProt P43681)
D(2) dopamine receptor = D(2) dopamine receptor (Homo sapiens, UniProt P14416)
[3] = target: 5-hydroxytryptamine receptor 1E (Homo sapiens, UniProt P28566)
Histamine H1 receptor = Histamine H1 receptor (Homo sapiens, UniProt P35367)
[4] = target: Potassium voltage-gated channel subfamily H member 2 (Homo sapiens, UniProt Q12809)
D(1B) dopamine receptor = D(1B) dopamine receptor (Homo sapiens, UniProt P21918)
Chain of D(1B) dopamine receptor (P21918 whole entry): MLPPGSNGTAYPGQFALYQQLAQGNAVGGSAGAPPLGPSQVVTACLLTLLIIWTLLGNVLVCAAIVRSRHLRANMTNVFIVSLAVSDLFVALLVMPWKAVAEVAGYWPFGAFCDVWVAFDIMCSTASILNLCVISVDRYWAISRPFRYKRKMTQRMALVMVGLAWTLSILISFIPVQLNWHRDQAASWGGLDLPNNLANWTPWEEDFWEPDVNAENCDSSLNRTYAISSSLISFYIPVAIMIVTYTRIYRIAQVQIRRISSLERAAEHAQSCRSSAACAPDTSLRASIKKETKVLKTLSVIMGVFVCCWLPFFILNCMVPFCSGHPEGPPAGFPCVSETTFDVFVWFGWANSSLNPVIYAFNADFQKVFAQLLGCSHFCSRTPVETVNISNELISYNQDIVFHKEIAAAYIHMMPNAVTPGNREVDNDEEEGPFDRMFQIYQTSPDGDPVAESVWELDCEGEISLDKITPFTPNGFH

[5] = target: 5-hydroxytryptamine receptor 3A (Homo sapiens, UniProt P46098)
[6] = target: Beta-2 adrenergic receptor (Rattus norvegicus, UniProt P10608)
Chain of Beta-2 adrenergic receptor (P10608 whole entry): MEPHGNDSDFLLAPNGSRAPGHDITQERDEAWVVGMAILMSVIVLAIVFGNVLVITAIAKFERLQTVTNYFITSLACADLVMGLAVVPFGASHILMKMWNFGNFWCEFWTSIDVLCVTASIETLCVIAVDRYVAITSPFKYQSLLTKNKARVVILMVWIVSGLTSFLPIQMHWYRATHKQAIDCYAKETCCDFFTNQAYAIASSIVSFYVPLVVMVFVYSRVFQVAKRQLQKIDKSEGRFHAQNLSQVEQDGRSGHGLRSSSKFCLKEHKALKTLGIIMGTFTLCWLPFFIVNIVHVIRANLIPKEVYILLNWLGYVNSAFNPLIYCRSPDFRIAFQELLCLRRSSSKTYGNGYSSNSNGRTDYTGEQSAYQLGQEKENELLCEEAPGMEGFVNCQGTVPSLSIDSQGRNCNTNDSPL

Mu-type opioid receptor = Mu-type opioid receptor (Homo sapiens, UniProt P35372)
Chain of Mu-type opioid receptor (P35372 whole entry): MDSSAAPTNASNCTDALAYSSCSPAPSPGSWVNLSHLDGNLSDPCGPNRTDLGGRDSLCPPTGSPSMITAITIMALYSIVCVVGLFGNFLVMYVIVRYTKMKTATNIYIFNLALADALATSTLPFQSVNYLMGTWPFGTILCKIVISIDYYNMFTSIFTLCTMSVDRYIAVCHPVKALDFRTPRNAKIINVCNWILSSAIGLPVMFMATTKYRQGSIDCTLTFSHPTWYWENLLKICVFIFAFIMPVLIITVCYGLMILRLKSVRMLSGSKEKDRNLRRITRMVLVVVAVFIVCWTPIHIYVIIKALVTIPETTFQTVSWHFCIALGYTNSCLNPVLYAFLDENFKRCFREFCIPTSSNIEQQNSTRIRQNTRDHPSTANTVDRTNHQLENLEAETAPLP

[7] = target: Muscarinic acetylcholine receptor M1 (Homo sapiens, UniProt P11229)
Chain of Muscarinic acetylcholine receptor M1 (P11229 whole entry): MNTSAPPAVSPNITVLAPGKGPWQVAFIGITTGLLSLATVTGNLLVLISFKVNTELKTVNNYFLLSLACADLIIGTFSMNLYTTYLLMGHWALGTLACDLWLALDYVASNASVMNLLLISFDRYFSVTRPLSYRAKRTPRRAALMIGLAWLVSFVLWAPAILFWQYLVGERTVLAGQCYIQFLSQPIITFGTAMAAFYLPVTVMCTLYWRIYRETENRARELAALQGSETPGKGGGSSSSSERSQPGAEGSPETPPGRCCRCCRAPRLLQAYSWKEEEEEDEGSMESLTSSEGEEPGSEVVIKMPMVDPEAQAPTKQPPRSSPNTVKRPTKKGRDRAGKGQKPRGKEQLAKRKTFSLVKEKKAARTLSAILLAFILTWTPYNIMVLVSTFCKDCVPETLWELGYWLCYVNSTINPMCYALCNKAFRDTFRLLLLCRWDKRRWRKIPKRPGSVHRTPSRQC

[8] = target: 5-hydroxytryptamine receptor 1B (Homo sapiens, UniProt P28222)
[9] = target: 5-hydroxytryptamine receptor 7 (Homo sapiens, UniProt P34969)
D(4) dopamine receptor = D(4) dopamine receptor (Homo sapiens, UniProt P21917)
Chain of D(4) dopamine receptor (P21917 whole entry): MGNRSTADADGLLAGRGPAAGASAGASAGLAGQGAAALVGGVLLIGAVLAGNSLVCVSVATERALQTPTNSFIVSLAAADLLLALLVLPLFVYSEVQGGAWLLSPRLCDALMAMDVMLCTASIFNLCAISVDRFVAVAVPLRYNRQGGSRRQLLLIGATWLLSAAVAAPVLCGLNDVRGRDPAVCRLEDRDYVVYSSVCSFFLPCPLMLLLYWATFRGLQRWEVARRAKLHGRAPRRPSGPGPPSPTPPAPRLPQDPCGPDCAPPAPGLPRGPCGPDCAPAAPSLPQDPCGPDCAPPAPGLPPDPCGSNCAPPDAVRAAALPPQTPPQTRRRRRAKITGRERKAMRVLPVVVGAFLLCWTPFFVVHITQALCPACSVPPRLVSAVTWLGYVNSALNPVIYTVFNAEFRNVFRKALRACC

D(3) dopamine receptor = D(3) dopamine receptor (Rattus norvegicus, UniProt P19020)
Chain of D(3) dopamine receptor (P19020 whole entry): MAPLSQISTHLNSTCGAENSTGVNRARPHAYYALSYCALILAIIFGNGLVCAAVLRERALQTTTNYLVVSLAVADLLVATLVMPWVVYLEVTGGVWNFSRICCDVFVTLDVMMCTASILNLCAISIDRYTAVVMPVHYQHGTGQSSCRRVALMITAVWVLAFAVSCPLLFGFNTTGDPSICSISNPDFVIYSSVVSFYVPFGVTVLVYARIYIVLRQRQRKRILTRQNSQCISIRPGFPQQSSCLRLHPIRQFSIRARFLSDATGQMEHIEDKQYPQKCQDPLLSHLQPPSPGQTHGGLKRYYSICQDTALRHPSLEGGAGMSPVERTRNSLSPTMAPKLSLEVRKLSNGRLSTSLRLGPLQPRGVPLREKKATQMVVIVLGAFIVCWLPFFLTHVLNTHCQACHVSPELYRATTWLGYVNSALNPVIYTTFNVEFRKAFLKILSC

Cannabinoid receptor 2 = Cannabinoid receptor 2 (Homo sapiens, UniProt P34972)
[10] = target: Alpha-1B adrenergic receptor (Homo sapiens, UniProt P35368)
[11] = target: 5-hydroxytryptamine receptor 2C (Rattus norvegicus, UniProt P08909)
Chain of 5-hydroxytryptamine receptor 2C (P08909 whole entry): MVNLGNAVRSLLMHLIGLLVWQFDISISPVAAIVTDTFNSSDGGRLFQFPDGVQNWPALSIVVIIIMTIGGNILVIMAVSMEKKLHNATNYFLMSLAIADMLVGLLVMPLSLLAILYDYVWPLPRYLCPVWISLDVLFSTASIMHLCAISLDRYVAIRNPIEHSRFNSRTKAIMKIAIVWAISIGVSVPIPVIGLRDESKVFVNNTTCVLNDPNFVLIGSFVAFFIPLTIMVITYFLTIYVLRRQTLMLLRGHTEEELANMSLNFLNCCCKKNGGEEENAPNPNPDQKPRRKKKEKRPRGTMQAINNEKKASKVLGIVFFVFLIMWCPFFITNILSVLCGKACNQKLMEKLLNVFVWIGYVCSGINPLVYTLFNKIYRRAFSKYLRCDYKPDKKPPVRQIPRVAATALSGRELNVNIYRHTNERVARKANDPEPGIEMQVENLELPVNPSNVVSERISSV

[12] = target: Sigma non-opioid intracellular receptor 1 (Rattus norvegicus, UniProt Q9R0C9)
[13] = target: Alpha-2C adrenergic receptor (Homo sapiens, UniProt P18825)
[14] = target: Neuronal acetylcholine receptor subunit alpha-2 (Homo sapiens, UniProt Q15822)
[15] = target: 5-hydroxytryptamine receptor 6 (Homo sapiens, UniProt P50406)
Chain of 5-hydroxytryptamine receptor 6 (P50406 whole entry): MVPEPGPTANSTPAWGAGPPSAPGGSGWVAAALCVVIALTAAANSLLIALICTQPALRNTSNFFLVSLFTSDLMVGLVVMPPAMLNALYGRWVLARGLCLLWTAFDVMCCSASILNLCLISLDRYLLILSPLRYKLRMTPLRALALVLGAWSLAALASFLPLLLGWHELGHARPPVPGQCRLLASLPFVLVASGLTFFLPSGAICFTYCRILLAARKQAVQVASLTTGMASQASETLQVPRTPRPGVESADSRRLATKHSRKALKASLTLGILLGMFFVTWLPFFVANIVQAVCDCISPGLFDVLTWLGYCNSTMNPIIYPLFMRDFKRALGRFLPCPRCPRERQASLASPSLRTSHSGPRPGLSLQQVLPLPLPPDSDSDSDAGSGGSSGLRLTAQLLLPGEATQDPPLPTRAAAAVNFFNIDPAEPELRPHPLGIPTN

[16] = target: Beta-1 adrenergic receptor (Rattus norvegicus, UniProt P18090)
Cannabinoid receptor 1 = Cannabinoid receptor 1 (Rattus norvegicus, UniProt P20272)
Histamine H2 receptor = Histamine H2 receptor (Homo sapiens, UniProt P25021)
[17] = target: 5-hydroxytryptamine receptor 1D (Homo sapiens, UniProt P28221)
[18] = target: 5-hydroxytryptamine receptor 1A (Homo sapiens, UniProt P08908)
[19] = target: Muscarinic acetylcholine receptor M5 (Homo sapiens, UniProt P08912)
[20] = target: Alpha-2B adrenergic receptor (Homo sapiens, UniProt P18089)
Chain of Alpha-2B adrenergic receptor (P18089 whole entry): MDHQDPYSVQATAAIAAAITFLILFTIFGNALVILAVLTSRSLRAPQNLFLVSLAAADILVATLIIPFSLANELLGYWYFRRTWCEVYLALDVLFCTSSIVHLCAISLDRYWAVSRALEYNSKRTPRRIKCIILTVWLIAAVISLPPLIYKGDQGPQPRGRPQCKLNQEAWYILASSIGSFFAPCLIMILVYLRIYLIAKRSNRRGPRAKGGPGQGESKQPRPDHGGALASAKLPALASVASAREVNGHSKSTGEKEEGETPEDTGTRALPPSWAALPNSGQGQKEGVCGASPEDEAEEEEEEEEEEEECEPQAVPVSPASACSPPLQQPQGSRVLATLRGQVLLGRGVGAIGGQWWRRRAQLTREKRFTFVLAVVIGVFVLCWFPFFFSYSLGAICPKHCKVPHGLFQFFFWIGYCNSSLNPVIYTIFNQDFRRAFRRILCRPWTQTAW

[21] = target: AP-2 complex subunit sigma (Rattus norvegicus, UniProt P62744)
Chain of AP-2 complex subunit sigma (P62744 whole entry, looked up, one chain of several): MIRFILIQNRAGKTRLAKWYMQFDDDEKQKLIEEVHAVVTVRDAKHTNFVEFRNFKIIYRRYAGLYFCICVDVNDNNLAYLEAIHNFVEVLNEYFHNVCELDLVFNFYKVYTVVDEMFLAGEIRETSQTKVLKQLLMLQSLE

[22] = target: 5-hydroxytryptamine receptor 2A (Homo sapiens, UniProt P28223)
[23] = target: Muscarinic acetylcholine receptor M2 (Homo sapiens, UniProt P08172)
[24] = target: Neuronal acetylcholine receptor subunit alpha-3 (Homo sapiens, UniProt P32297)
[25] = target: ATP-dependent translocase ABCB1 (Homo sapiens, UniProt P08183)
[26] = target: Alpha-1A adrenergic receptor (Homo sapiens, UniProt P35348)
[27] = target: Alpha-2A adrenergic receptor (Homo sapiens, UniProt P08913)
[28] = target: Muscarinic acetylcholine receptor M4 (Homo sapiens, UniProt P08173)
D(1A) dopamine receptor = D(1A) dopamine receptor (Homo sapiens, UniProt P21728)
[29] = target: Sodium-dependent noradrenaline transporter (Homo sapiens, UniProt P23975)
[30] = target: Kappa-type opioid receptor (Homo sapiens, UniProt P41145)

Measured: Ki

Chain of 5-hydroxytryptamine receptor 1E (P28566 whole entry): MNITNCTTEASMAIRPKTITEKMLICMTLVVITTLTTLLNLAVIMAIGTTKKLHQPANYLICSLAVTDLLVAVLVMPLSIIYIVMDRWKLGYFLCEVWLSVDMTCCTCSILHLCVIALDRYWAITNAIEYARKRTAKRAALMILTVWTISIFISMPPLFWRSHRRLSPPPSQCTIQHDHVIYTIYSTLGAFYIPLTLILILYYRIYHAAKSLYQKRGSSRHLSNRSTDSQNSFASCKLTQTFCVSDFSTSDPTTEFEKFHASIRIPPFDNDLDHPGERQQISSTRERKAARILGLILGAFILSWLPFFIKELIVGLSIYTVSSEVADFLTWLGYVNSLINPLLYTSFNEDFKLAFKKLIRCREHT
Chain of D(2) dopamine receptor (P14416 whole entry): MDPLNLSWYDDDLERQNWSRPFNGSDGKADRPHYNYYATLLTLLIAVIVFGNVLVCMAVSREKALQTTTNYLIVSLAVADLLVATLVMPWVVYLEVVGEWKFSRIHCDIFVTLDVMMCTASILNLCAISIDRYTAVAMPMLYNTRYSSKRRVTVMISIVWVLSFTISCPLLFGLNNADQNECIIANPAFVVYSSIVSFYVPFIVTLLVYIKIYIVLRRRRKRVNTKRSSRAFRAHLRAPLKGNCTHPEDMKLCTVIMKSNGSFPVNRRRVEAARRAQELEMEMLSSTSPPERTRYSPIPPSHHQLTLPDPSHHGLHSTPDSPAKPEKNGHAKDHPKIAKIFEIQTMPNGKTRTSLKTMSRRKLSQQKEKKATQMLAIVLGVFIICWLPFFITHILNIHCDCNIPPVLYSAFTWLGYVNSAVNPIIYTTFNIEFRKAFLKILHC

NC(=O)c1cccc(-c2cccc(OC(=O)NC3CCCCC3)c2)c1 [URB 597]
> 10 µM: all assays above
